From article PMC12347391, “Sulforaphane-Rich Broccoli Sprout Extract Promotes Hair Regrowth in an Androgenetic Alopecia Mouse Model via Enhanced Dihydrotestosterone Metabolism” (International Journal of Molecular Sciences, 2025)
Like-named read-outs stand apart in the source and are kept apart here.

Key:
[1] = after 5 weeks, cited from earlier work
[2] = in humans; cited from earlier work
HaCaT keratinocytes = details: human, 24 h
HDP cells [3] = experiment: In vitro cell proliferation assay (WST-1); type: cell-based, human; details: between 0.5 and 5 µg/mL
[4] = system: CCD-986sk dermal fibroblasts; details: human, 24 h
[5] = in water at 25 °C; cited from earlier work
[6] = pH 1.2 (mimics gastric fluid), within 1 h; cited from earlier work
HDP cells [7] = experiment: In vitro scratch wound recovery assay; type: cell-based, human
Protocol: No. BA-045855; Sartorius AG, […], Germany). […] Sartorius AG), following the manufacturer's instructions. Detached cells were removed by washing twice with PBS (pH 7.4). […] All treatments were performed in triplicate, including a vehicle control. […] Wound closure was quantified using the Incucyte® Scratch Wound Analysis Software Module, which calculates relative wound density (%) by comparing cell density within the wound area to that of the surrounding monolayer, providing an objective measure of cell migration and proliferation over time.

in vivo = details: Sprague-Dawley, rat, plasma, rats; for AUC(0-inf): read-out: AUCinf of SFN; for AUC(0-t): read-out: AUClast of SFN; for half-life: read-out: T1/2 of SFN (converted)
Protocol: To evaluate absolute oral bioavailability, an intravenous (IV) bolus dose of SFN (2 mg/kg, dissolved in normal saline, 200 µL) was administered via a cannulated femoral vein. Blood samples (300 µL) were collected from the femoral artery at predetermined time points: 0.17, 0.5, 1, 1.5, 2, 4, 8, and 12 h post-IV dosing, and 0.17, 0.5, 1, 2, 4, 6, 8, and 12 h post-oral dosing. Samples were immediately centrifuged at 13,000× g for 5 min at 4 °C to separate plasma, which was stored at −80 °C until further analysis.
The plasma concentrations of SFN were determined using liquid chromatography–tandem mass spectrometry (LC–MS/MS) following protein precipitation and solid-phase extraction. Briefly, 180 µL of plasma was spiked with 10 µL of SFN working solution (0.2–20 µg/mL) and 10 µL of internal standard (IS), phenethyl isothiocyanate (PHE, 5 µg/mL in acetonitrile). Proteins were precipitated by adding 200 µL of a solvent mixture consisting of 25% acetonitrile, 25% water, and 50% ethanol, followed by centrifugation at 18,340× g for 5 min at 4 °C. The resulting 400 µL supernatant was subjected to SPE using Oasis® HLB 96-well µElution plates (2 mg sorbent per well, 30 µm particle size; Waters Corporation, Milford, MA, USA), preconditioned with 200 µL each of methanol and water. After sample loading, the wells were washed sequentially with 200 µL of water and 50% aqueous methanol, and analytes were eluted with 400 µL of acetonitrile (2 × 200 µL).
Chromatographic separation was achieved on an ACQUITY UPLC system (Waters Corporation) using a BEH C18 column (50 × 2.1 mm, 1.7 µm). The mobile phase consisted of 10 mM ammonium acetate in water (30%, solvent A) and 0.1% formic acid in acetonitrile (70%, solvent B), delivered at a flow rate of 0.6 mL/min. The column temperature was maintained at 50 °C, and the injection volume was 10 µL.
Detection was performed using a Xevo TQ-S triple quadrupole mass spectrometer (Waters Corporation) equipped with an electrospray ionization source in the positive-ion mode. Multiple reaction monitoring (MRM) transitions were set at m/z 178.0 → 114.0 for SFN (cone voltage: 24 V; collision energy: 30 eV) and m/z 164.0 → 130.0 for PHE (cone voltage: 23 V; collision energy: 22 eV). The instrument settings included a capillary voltage of 3.0 kV, source temperature of 120 °C, desolvation temperature of 500 °C, desolvation gas (nitrogen) flow of 800 L/h, and cone gas (nitrogen) flow of 50 L/h. Argon was used as the collision gas. All the MRM parameters were optimized using the software IntelliStart^TM (Waters Corporation).
The calibration curve for SFN was linear over the range of 0.5–1000 ng/mL, with a lower limit of detection (LOD) of 0.5 ng/mL. The overall recovery of SFN using the described extraction method was 90 ± 3%, when compared to the direct analysis of the standard diluted in methanol.

HDP cells [8] = experiment: Boyden chamber migration assay; type: cell-based, human; details: 24 h, BSE based on SFN equivalence
Protocol: To evaluate the migratory ability of HDP cells, a Boyden chamber assay was performed. HDP cells were serum-starved for 24 h in a medium containing 0.5% (v/v) FCS. […] The lower chambers were filled with 600 µL of HDP medium supplemented with 4% FCS, 4% bovine pituitary extract, 1 ng/L recombinant human fibroblast growth factor, and 5 µg/L recombinant human insulin. After a 24 h incubation period to allow for migration, cells were fixed with 4% paraformaldehyde (BL539A, Biosharp, Hefei, Anhui, China) for 15 min and stained using Crystal Violet Staining Solution (C0121, Beyotime, Shanghai, China) for 10 min. Non-migrated cells on the upper side of the insert membrane were carefully removed using a cotton swab. To quantify migrated cells, the basal chambers were filled with 500 µL of calcein-AM-based cell dissociation solution. Cells were incubated for 1 h at 37 °C, and the fluorescence of the dissociated calcein-AM was measured using a microplate reader at an excitation wavelength of 485 nm and an emission wavelength of 520 nm.

Structure (SMILES): C[S+]([O-])CCCCN=C=S (stereo not drawn) [SFN, Sulforaphane]
- residual SFN content ([1]; stored at 4 °C): 95.18 ± 0.20%
- residual SFN content ([1]; stored at 26 °C): 78.45 ± 0.28%
- residual SFN content ([1]; stored at −20 °C): 96.56 ± 0.15%
- biological half-life [2]: approximately 2.2 h
- concentration above which cytotoxic effects (decreased cell viability) were seen (HaCaT keratinocytes): above 10 µg/mL
- relative cell proliferation (HDP cells [3]): approximately 200%
- concentration at which proliferation decreased (dose-dependent cytotoxicity) [4]: ≥ 5000 ng/mL
- aqueous solubility [5]: ~ 1.85 mg/mL
- fraction degraded [6]: ~90%
- scratch wound closure (HDP cells [7]; 1 µg/mL, 16 h): 71.5%
- scratch wound closure (HDP cells [7]; 1 µg/mL, 20 h): 74.9%
- scratch wound closure (HDP cells [7]; 1 µg/mL, 24 h): 94.8%
- scratch wound closure (HDP cells [7]; 25 µg/mL, 16 h): significant cell detachment and reduced recovery
- scratch wound closure (HDP cells [7]; 25 µg/mL, 20 h): remaining below the control
- Cmax (in vivo; SFN IV 2 mg/kg): 339 ± 50 ng/mL
- AUC(0-inf) (in vivo; SFN IV 2 mg/kg): 421 ± 67 ng·h/mL
- AUC(0-t) (in vivo; SFN IV 2 mg/kg): 403 ± 52 ng·h/mL
- half-life (in vivo; SFN IV 2 mg/kg): 7 ± 3 h
- Cmax (in vivo; SFN oral 5 mg/kg): 155 ± 17 ng/mL
- Tmax (in vivo; SFN oral 5 mg/kg): 2 h
- bioavailability (in vivo; SFN oral 5 mg/kg, vs SFN IV): 87 ± 5%
- AUC(0-inf) (in vivo; SFN oral 5 mg/kg): 934 ± 41 ng·h/mL
- AUC(0-t) (in vivo; SFN oral 5 mg/kg): 874 ± 46 ng·h/mL
- half-life (in vivo; SFN oral 5 mg/kg): 5 h
- relative HDP cell migration (untreated control = 100%) (HDP cells [8]; 0.1 µg/mL): 141%
- relative HDP cell migration (untreated control = 100%) (HDP cells [8]; 1 µg/mL): 150%
- relative HDP cell migration (untreated control = 100%) (HDP cells [8]; 25 µg/mL): 16.7%
